Test systems include 786-0; ACHN; CAKI-1; COLO 205; DU-145; EKVX; HCT-15; KM12; NCI-H23; OVCAR-3; OVCAR-4; OVCAR-8; RPMI-8226; SF-295; SF-539; U-251; UACC-62; HOP-62; SNB-75.
Test in all cases: NCI tumour cell line growth inhibition, 48 h

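Tested at 5 concentrations; 48 h exposure; 96-well plates; endpoints linearly interpolated, else capped at highest concentration. GI50 = concentration required for 50% inhibition of growth.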 The source made the active and inactive calls. Rule as the data show it: active = GI50 up to about 1.1 µM and inactive = higher.

Take `COC(=O)c1ccc(S)c(S(=O)(=O)Nc2nc(N)n[nH]2)c1`: the GI50 in the assay with 786-0, with ACHN, with CAKI-1, in the assay on COLO 205, with DU-145 and with EKVX was > 100 µM (inactive) each time. For the same molecule, the GI50 in the assay with HCT-15 is > 100 µM; in the assay with KM12, > 100 µM (inactive); in the assay on NCI-H23 it was > 100 µM (inactive); with OVCAR-3, > 100 µM (inactive); in the assay with OVCAR-4, > 100 µM (inactive); with OVCAR-8 it was > 100 µM (inactive). Moreover, the GI50 in the assay with RPMI-8226, in the assay on SF-295, in the assay on SF-539, in the assay with U-251 and in the assay on UACC-62 was > 100 µM (inactive) in each case.

On to `Cc1cc(-n2c(/C=C/c3ccc(Cl)cc3)nc3cc(Cl)ccc3c2=O)on1`, for which the GI50 is 1.47 µM (inactive) in the assay on 786-0; 7.57 µM (inactive) with ACHN; > 50 µM (inactive) with CAKI-1; 18.9 µM (inactive) with COLO 205; > 50 µM (inactive) in the assay on DU-145; 22.4 µM (inactive) in the assay on EKVX. Moreover, the GI50 with HCT-15 is 28.1 µM; with HOP-62, 7.62 µM (inactive); in the assay with KM12 it was > 50 µM (inactive); in the assay on NCI-H23, 41.4 µM (inactive); in the assay with OVCAR-3 it was 10.1 µM (inactive); in the assay with OVCAR-4 it was 1.25 µM (inactive). The GI50 is 10.6 µM (inactive) with OVCAR-8; 22 µM (inactive) in the assay on SF-295; 25.6 µM (inactive) with SF-539; 6.4 µM (inactive) in the assay on U-251; > 50 µM (inactive) with UACC-62.

Take `CC(=O)O[C@H]1[C@H](OC(=O)CC(C)(O)CC(=O)O)C[C@]2(C)C3=C(CCC2C1(C)C)[C@]1(C)CC[C@H]([C@H]2CC[C@H](C(C)(C)O)OC2O)[C@@]1(C)[C@@H](O)C3` (stereo partly specified): the GI50 with 786-0 is 18.4 µM (inactive); in the assay with ACHN, 15.8 µM (inactive); in the assay on CAKI-1, 16.9 µM (inactive); in the assay on DU-145, 25.8 µM (inactive); in the assay on EKVX, 17.4 µM (inactive); in the assay with HCT-15, 17.2 µM. Also, the GI50 was 16.3 µM (inactive) in the assay on HOP-62; 19.7 µM (inactive) in the assay with KM12; 16.6 µM (inactive) with NCI-H23; 16.1 µM (inactive) in the assay on OVCAR-3; 19.7 µM (inactive) with OVCAR-4; 18.7 µM (inactive) in the assay on OVCAR-8. The GI50 in the assay with RPMI-8226 was 20.9 µM (inactive); with SF-295, 18.3 µM (inactive); in the assay with U-251, 19.8 µM (inactive); with UACC-62, 19.4 µM (inactive).

Regarding `CCCCN=C(OC1C=CCCC1)SC` (stereo unspecified), the GI50 is > 100 µM (inactive) in the assay with 786-0; > 100 µM (inactive) in the assay with ACHN; > 100 µM (inactive) in the assay on COLO 205; > 100 µM (inactive) in the assay with DU-145; > 100 µM (inactive) with EKVX; > 100 µM with HCT-15. For the same molecule, the GI50 in the assay on HOP-62, with NCI-H23, in the assay on OVCAR-3, with OVCAR-4, with OVCAR-8 and with RPMI-8226 was > 100 µM (inactive) in each case. Further, the GI50 in the assay with SF-295 is > 100 µM (inactive); in the assay with SNB-75, 51.9 µM (inactive); with U-251, > 100 µM (inactive); in the assay with UACC-62 it was > 100 µM (inactive).

These data come from ChEMBL document CHEMBL1201862, “PubChem BioAssay data set” (2004).
